Measurements reported in patent US20090325917A1, “Pharmaceutical Compositions and Nasal Spray Incorporating Anhydrous Mometasone Furoate” (CIPLA LIMITED, priority 2006, published 2009).

Key:
[1] = Storage stability of the composition, crystalline form assessed by X-ray diffraction; type: physicochemical; settings: in the aqueous composition
From the text: The stability of the compositions in accordance with the present invention may be defined by standard methods. The anhydrous crystalline form is stable at room temperature. […] The crystalline form may be assessed using X-ray diffraction methods.

[2] = Rotation stability of the composition, crystalline form assessed by X-ray diffraction; type: physicochemical; settings: in the aqueous composition; rotated for five days at 35° C. and an additional four weeks at room temperature
From the text: The crystalline form may be assessed using X-ray diffraction methods.

[3] = Stability of the API on boiling/stirring in water, tested by X-ray diffraction; type: physicochemical; settings: boiling in water (with and without Tween 80), two hours stirring at 70 deg in a water bath, then 2 hours at 70 deg on a magnetic stirrer; residue dried at 25° C. under vacuum
Experimental: The monohydrate peak is clearly visible in the BX 2029 trace, and is absent in the remaining pattern, indicating the presence of anhydrous form in the formulation. Stability of the mometasone furoate anhydrous API was confirmed by boiling in water (with and without the surfactant Tween 80) for two hours whilst stirring at 70 deg in a water bath, followed by 2 hours at 70 deg on a magnetic stirrer. The solution was cooled to room temperature, filtered and the residue containing the API was dried at 25° C. under vacuum. […]

[4] = aqueous solution; converted to a different crystalline form after storage at 35° C.; cited from earlier work

crystalline form of the anhydrous mometasone furoate in the composition ([1]; 25° for a period of three months): does not change
crystalline form of the anhydrous mometasone furoate in the composition ([1]; 40° C. for a period of three months): does not change
crystalline form of the anhydrous mometasone furoate in the composition [2]: does not change
Compound: C[C@@H]1C[C@H]2[C@@H]3CCC4=CC(=O)C=C[C@]4(C)[C@@]3(Cl)[C@@H](O)C[C@]2(C)[C@@]1(OC(=O)c1ccco1)C(=O)CCl [anhydrous mometasone furoate]
XRD pattern of the dried sample after treatment in water [3]: concordant with that of mometasone furoate anhydrous
stability of the crystalline form in aqueous composition [4]: unstable
